According to article PMC10511816 (The Journal of Biological Chemistry, 2023):

Key:
[1] = biological target: T1, XO type enzyme (xanthine oxidase) (Bos taurus, UniProt P80457); assay: time-dependent inhibition of uric acid production from xanthine by XO (A295); format: biochemical, bovine; settings: for 50% inhibition time of uric acid production / stop time of uric acid production: pH 8.5, 25 °C
T1 construct: Bovine milk was obtained from the animal farm of the Nippon Veterinary and Life Science University; from tissue; host or cells: bovine milk
Experimental: A295 indicates the concentration of uric acid yielded by XOR. […] Uric acid production was measured at 295 nm at 25 °C.
(§1) Bovine milk was obtained from the animal farm of the Nippon Veterinary and Life Science University. […] The dehydrogenase form of the enzyme (XDH) was obtained by reacting XO immediately upon purification with 5 mM DTT at pH 8.5, 25 °C for 1 h. XO and XDH assays were carried out at 25 °C under aerobic conditions. […] A total of 500 μM β-NAD^+ was added to the same reaction solution for XDH activity. Physiological conditions such as pH 7.4 (0.1 M potassium phosphate buffer (KPB), 0.2 mM EDTA) and the addition of 50 μM β-NADH were also used. The activity was measured by following 295 nm and 340 nm on a UV-1800 or UV1900i spectrophotometer. […] In addition, the enzyme reaction solution was quenched with perchloric acid and neutralized with K2CO3, with products analyzed using HPLC as described below. Spectrophotometric data were analyzed using UV-Probe software Ver. 2.70 or LabSolutions UV-Vis Ver. […] Kinetic parameters were determined from nonlinear curve fits of raw data using GraphPad Prism 9 software.

XO = XO (Bos taurus, UniProt P80457); assay: oxidation of hypoxanthine to xanthine and uric acid by XO, HPLC time course; format: biochemical, bovine; parameters: Bovine milk was obtained from the animal farm of the Nippon Veterinary and Life Science University; from tissue; host or cells: bovine milk
Experimental: The rate of NAD^+ conversion to NADH was measured at A340 nm.
as §1
Purine concentrations were measured using a Shimadzu HPLC system consisting of the CBM-20A controller, LC-20AD pump, SIL-20AC autosampler (set at 4 °C), CTO-20A column oven (set at 40 °C), and SPD-M20A diode array detector. Peak analysis was performed using LC solution software. A SUPELCOSIL LC-18-T column (25 cm × 4.6 mm id 5 μm particle size) was used with the SUPELCOSIL LC-18-T Supelguard guard column separation of purines, using a flow rate was 0.8 ml/min and 10 or 20 μl samples. The mobile phase used was A: 0.1 M KPB and 4 mM tetrabutylammonium hydrogen sulfate (pH 5.5), B: 70% buffer A and 30% methanol (v/v). Gradient conditions were 0 min (0% B), 2 min (0% B), 4 min (30% B), 12 min (60% B), 15 min (100% B), 19 min (100% B), 20 min (0% B), and 30 min (0% B). Detection wavelengths were 254 nm, 268 nm, and 295 nm. The data were analyzed using LabSolutions Ver. 5.97 SP1. All purines were identified by retention time and quantified using an external standard.

XDH = XDH (Bos taurus, UniProt P80457); assay: initial-velocity steady-state kinetics of XDH, NAD+ as electron acceptor; format: biochemical, bovine; parameters: Bovine milk was obtained from the animal farm of the Nippon Veterinary and Life Science University; from tissue; host or cells: bovine milk; settings: for Types of inhibition / Ki: XDH; for Types of inhibition: NAD+
Experimental: as §1
(§2) A295 indicates the concentration of uric acid yielded by XOR. […] A295 indicates the concentration of uric acid yielded by XOR. Figure S2. The XOR inhibition mode of oxypurinol.A–G, Lineweaver-Burk plots were generated to visualize data and estimated the inhibition patterns. Data are representative of least two independent experiments. […] Figure S3. […] B, mode of inhibition of oxypurinol on the inosine degradation reaction of PNP. […] 0, 250, 375, 500, 750 and 1000 μM of oxypurinol were used. […] The rate of NAD^+ conversion to NADH was measured at A340 nm.

[2] = cited from earlier work
XOR = biological target: T2, XOR (Bos taurus, UniProt P80457); assay: XOR kinetics with phenazine methosulfate / cytochrome c reduction (550 nm); format: biochemical, bovine; settings: for Types of inhibition / Ki: XOR; for Types of inhibition: PMS
T2 construct: Bovine milk was obtained from the animal farm of the Nippon Veterinary and Life Science University; from tissue; host or cells: bovine milk
Experimental: Therefore, phenazine methosulfate was used to induce direct, rapid reoxidation of the molybdenum center ([22], [23]).
as §1, with “used.” for “used. The activity was measured by following 295 nm and 340 nm on a UV-1800 or UV1900i spectrophotometer.”
as §2

[3] = xanthine 5 μM, inhibitor 2 μM, XO
[4] = xanthine 10 μM, inhibitor 2 μM, XO
[5] = xanthine 50 μM, inhibitor 2 μM, XO
[6] = xanthine 50 μM, inhibitor 10 μM, XO
[7] = xanthine 50 μM, inhibitor 50 μM, XO
[8] = as substrate of XDH, electron acceptor NAD+, 340 nm, mean ± S.E.
[9] = as substrate of XOR, electron acceptor PMS, mean ± S.E.
[10] = xanthine 2 μM, inhibitor 2 μM, XO
[11] = xanthine 2 μM, inhibitor 10 μM, XO
[12] = xanthine 5 μM, inhibitor 10 μM, XO

T1 sequence (P80457 whole entry): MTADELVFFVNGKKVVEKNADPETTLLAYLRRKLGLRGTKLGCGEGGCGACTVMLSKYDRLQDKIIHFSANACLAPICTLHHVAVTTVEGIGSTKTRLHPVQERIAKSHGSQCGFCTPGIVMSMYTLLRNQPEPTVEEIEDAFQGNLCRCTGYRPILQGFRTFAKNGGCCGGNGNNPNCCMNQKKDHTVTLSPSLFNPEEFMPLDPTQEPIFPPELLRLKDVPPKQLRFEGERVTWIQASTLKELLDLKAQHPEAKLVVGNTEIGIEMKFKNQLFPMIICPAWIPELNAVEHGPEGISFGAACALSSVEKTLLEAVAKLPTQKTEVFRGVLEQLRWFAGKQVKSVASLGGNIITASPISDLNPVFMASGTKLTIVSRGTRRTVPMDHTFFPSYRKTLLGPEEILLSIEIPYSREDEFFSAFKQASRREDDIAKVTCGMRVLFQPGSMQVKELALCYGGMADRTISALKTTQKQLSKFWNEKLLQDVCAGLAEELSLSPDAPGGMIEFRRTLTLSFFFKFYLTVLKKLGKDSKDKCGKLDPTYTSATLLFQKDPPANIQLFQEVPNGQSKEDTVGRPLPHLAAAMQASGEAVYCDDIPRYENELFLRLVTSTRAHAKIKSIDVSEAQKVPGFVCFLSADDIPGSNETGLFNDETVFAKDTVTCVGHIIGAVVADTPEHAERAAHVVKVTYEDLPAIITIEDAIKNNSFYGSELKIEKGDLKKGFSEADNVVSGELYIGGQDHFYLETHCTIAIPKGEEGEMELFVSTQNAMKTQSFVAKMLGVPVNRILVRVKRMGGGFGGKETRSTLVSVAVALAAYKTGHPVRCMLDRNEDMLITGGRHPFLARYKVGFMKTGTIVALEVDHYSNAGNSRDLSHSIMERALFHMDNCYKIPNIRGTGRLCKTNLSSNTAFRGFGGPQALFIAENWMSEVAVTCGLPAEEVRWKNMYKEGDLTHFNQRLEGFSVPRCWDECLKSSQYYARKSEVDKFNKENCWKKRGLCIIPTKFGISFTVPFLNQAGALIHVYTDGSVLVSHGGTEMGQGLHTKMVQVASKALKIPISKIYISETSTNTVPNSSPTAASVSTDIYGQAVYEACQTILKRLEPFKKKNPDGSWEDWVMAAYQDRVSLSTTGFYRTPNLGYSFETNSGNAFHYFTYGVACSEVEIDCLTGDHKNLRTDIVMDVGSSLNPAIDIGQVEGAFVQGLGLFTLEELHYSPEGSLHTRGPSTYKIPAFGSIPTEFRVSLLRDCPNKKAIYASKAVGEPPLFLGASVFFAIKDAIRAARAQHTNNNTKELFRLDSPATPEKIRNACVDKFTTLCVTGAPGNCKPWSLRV
T2 sequence (P80457 whole entry): as above
XDH, sequence (P80457 whole entry): as above
XO, sequence (P80457 whole entry): as above

Oc1ncnc2[nH]ncc12 [Allopurinol]
effect on uric acid production ([1]; 10 μM or 50 μM inhibitor, 50 μM xanthine, XO): stops uric acid production immediately | 50% inhibition time of uric acid production [1, 3]: 1.0 min | stop time of uric acid production [1, 3]: 3.0 min | 50% inhibition time of uric acid production [1, 4]: 1.4 min | stop time of uric acid production [1, 4]: 6.9 min | 50% inhibition time of uric acid production [1, 5]: 3.8 min | stop time of uric acid production [1, 5]: 14.9 min | 50% inhibition time of uric acid production [1, 6]: 1.2 min | stop time of uric acid production [1, 6]: 4.5 min | 50% inhibition time of uric acid production [1, 7]: 0.2 min | stop time of uric acid production [1, 7]: 0.7 min | time to inhibit conversion of hypoxanthine to xanthine (XO; 10 μM inhibitor, 2.5 μM hypoxanthine, XO, pH 7.4, 25 °C): about 5 min | inhibition of conversion of hypoxanthine to xanthine (XO; 50 μM inhibitor, 2.5 μM hypoxanthine, XO): inhibition was immediate | Km (XDH; [8]): 4.23 ± 0.52 µM | kcat (XDH; [8]): 1.83 ± 0.92 s⁻¹ | serum oxypurinol concentrations ([2]; patients receiving 300 mg allopurinol daily for more than 2 weeks): greater than 100 μM | Km (XOR; [9]): 3.59 ± 0.45 µM | kcat (XOR; [9]): 26.17 ± 1.96 s⁻¹

O=c1[nH]c(=O)c2c[nH]nc2[nH]1 [Oxypurinol]
mode of inhibition ([1]; 2 μM xanthine, 0.1 M KPB pH 7.4): strictly competitive | uric acid production in presence of inhibitor ([1]; 2 μM xanthine, 0.1 M KPB pH 7.4, 0 to 400 μM oxypurinol): uric acid production was evident even with 400 μM oxypurinol | 50% inhibition time of uric acid production [1, 10]: 9.0 min | stop time of uric acid production [1, 10]: 58.3 min | 50% inhibition time of uric acid production [1, 11]: 14.9 min | stop time of uric acid production [1, 11]: 89.0 min | 50% inhibition time of uric acid production ([1]; xanthine 2 μM, inhibitor 50 μM, XO): 49.5 min | ratio of 50% inhibition time, oxypurinol (min)/allopurinol (min) ([1]; xanthine 5 μM, inhibitor 2 μM): 10.8 | ratio of stop time, oxypurinol (min)/allopurinol (min) ([1]; xanthine 5 μM, inhibitor 2 μM): 25.9 | 50% inhibition time of uric acid production [1, 3]: 10.8 min | stop time of uric acid production [1, 3]: 77.7 min | 50% inhibition time of uric acid production [1, 12]: 20.1 min | stop time of uric acid production [1, 12]: 119.4 min | 50% inhibition time of uric acid production ([1]; xanthine 5 μM, inhibitor 50 μM, XO): 38.3 min | ratio of 50% inhibition time, oxypurinol (min)/allopurinol (min) ([1]; xanthine 10 μM, inhibitor 2 μM): 10.9 | ratio of stop time, oxypurinol (min)/allopurinol (min) ([1]; xanthine 10 μM, inhibitor 2 μM): 14.7 | 50% inhibition time of uric acid production [1, 4]: 15.3 min | stop time of uric acid production [1, 4]: 101.4 min | 50% inhibition time of uric acid production ([1]; xanthine 10 μM, inhibitor 10 μM, XO): 20.8 min | 50% inhibition time of uric acid production ([1]; xanthine 10 μM, inhibitor 50 μM, XO): 19.7 min | ratio of 50% inhibition time, oxypurinol (min)/allopurinol (min) ([1]; xanthine 50 μM, inhibitor 2 μM): 8.6 | 50% inhibition time of uric acid production [1, 5]: 32.7 min | ratio of 50% inhibition time, oxypurinol (min)/allopurinol (min) ([1]; xanthine 50 μM, inhibitor 10 μM): 10.8 | 50% inhibition time of uric acid production [1, 6]: 13.0 min | ratio of 50% inhibition time, oxypurinol (min)/allopurinol (min) ([1]; xanthine 50 μM, inhibitor 50 μM): 34.0 | 50% inhibition time of uric acid production [1, 7]: 6.8 min | accumulation of xanthine from hypoxanthine (XO; up to 500 μM inhibitor, XO and XDH): accumulation of xanthine was still significant even at 500 μM oxypurinol | Types of inhibition (XDH; substrate hypoxanthine, 340 nm): Competitive | Ki (XDH; substrate hypoxanthine, electron acceptor NAD+, 340 nm, mean ± S.E.): 3150 ± 220 nM | Types of inhibition (XDH; substrate xanthine, 295 nm): Competitive | Ki (XDH; substrate xanthine, electron acceptor NAD+, 295 nm, mean ± S.E.): 4600 ± 870 nM | oxypurinol concentrations necessary to achieve target serum uric acid levels ([2]; ref Stamp et al. 5, 16): > 100 µmol/L | Types of inhibition (XOR; substrate hypoxanthine): Competitive | Ki (XOR; substrate hypoxanthine, electron acceptor PMS, mean ± S.E.): 1290 ± 140 nM | Types of inhibition (XOR; substrate xanthine): Competitive | Ki (XOR; substrate xanthine, electron acceptor PMS, mean ± S.E.): 1650 ± 240 nM
